Measurements reported in patent publication US4430328A, “Ruminant lactation improvement” (Eli Lilly and Company, priority 1982, dated 1984).

Tests used:
dairy cows = details: cited from earlier work
Holstein cows = assay: nine-week comparative activity and persistency test of glycopeptides; format: in vivo; details: 600 mg/head/day
Description: Another test was carried out to determine the comparative activity of glycopeptides and their persistency in altering milk production. Holstein cows were assigned as they calved to blocks of […] cows each. Within each block a random order of treatments was assigned. A nine-week study was started two weeks following calving. All cows underwent a one week preliminary period during which they received corn silage-concentrate, grain, hay and water. During the following eight week period, in addition to the normal feed ration, one group of six animals received no treatment (controls), another group of six animals received 600 mg/head/day actaplanin, and a third group of six cows received 600 mg/head/day of glycopeptide A35512B. Average daily milk production, milk composition, and persistency of milk production were analyzed. The data in Table VI are the averages for the daily determinations for the entire nine week trial period. The table reports average milk production and milk composition of nontreated controls and treated groups. The persistency values were calculated by dividing the average milk production during the eight week treatment period by average production during the preliminary non-treatment period. Persistency values express how well the treatment groups performed after initialization of treatment compared to performance before treatment initialization. Normal persistency for the trial was expected to be about 94 to about 96 percent. All treatment groups had higher persistencies, thus indicating an observable response to treatment even during a short term.

SMILES	fat content of milk (dairy cows)	fat-corrected-milk production (dairy cows)	volume of milk produced (dairy cows)	Milk Composition Fat (Holstein cows) [%]	Milk Composition Protein (Holstein cows) [%]	Milk Composition Solids (Holstein cows) [%]	protein content compared to non-treated controls (Holstein cows)	Milk Produced (Holstein cows; average of daily determinations, nine week trial) [pounds/day]	Persistency (Holstein cows; average production in eight week treatment period divided by preliminary period) [%]
CC[C@@]1([C@@H]2O[C@@H]([C@H]3O[C@@](O)(CO)[C@H](C)C[C@@H]3C)C[C@@H]2C)CC[C@H]([C@]2(C)CC[C@]3(C[C@H](O)[C@@H](C)[C@@H]([C@@H](C)[C@@H](OC)[C@H](C)C(=O)O)O3)O2)O1 [monensin]	significantly reduced	unchanged	increase						
COC(=O)[C@H]1NC(=O)[C@H]2NC(=O)[C@H](NC(=O)[C@@H]3NC(=O)C4NC(=O)[C@H](NC(=O)[C@H](N)c5cccc(O)c5Oc5cc(O[C@@H]6O[C@H](C)[C@H](O)[C@H](O)[C@@H]6O)c(Cl)c4c5)[C@H](O)c4ccc(cc4)Oc4cc3cc(c4O[C@@H]3O[C@H](CO)[C@@H](O)[C@@H](O[C@@H]4O[C@@H](C)[C@@H](O)[C@@H](O)[C@H]4O)[C@H]3O)Oc3ccc(cc3)[C@H]2O[C@H]2C[C@](C)(N)[C@H](O)[C@H](C)O2)c2ccc(O[C@H]3O[C@@H](CO)[C@H](O)[C@@H](O)[C@@H]3O)c(c2)-c2c(O)cc(O)cc21 [A35512B]				3.36	3.36	11.44	may be enhanced	56.0	99.4
